Values of other authors, collected in patent publication US20230117508A1, “ENHANCEMENT OF CAMP SIGNALING AS A COMBINATION DRUG STRATEGY FOR THE TREATMENT OF PSYCHIATRIC AND NEUROLOGICAL DISORDERS IN WHICH DEPRESSIVE, ANHEDONIA, MOTIVATION-RELATED OR COGNITION-RELATED DYSFUNCTION EXISTS” (ALTO NEUROSCIENCE, INC., priority 2021, published 2023).

What was measured:
[1] = in vivo
[2] = humans
[3] = not given; remark: listed apart in the source
[4] = small clinical trials in depression

Structure (SMILES): O=C(Nc1c(Cl)cncc1Cl)c1ccc(OC(F)F)c(OCC2CC2)c1 [Roflumilast]
- antidepressant effect [1]: no evidence of an antidepressant effect
- cognitive effects [1]: pro-cognitive effects

Structure (SMILES): CCOC(=O)COc1ccc2c(c1)C[C@@H](NC[C@H](O)c1cccc(Cl)c1)CC2 [amibegron]
- efficacy in two acute treatment clinical trials for depression [2]: failed to show efficacy
- antidepressant-like effects in animals: promising antidepressant-like effects

Structure (SMILES): COc1ccc(C2CNC(=O)C2)cc1OC1CCCC1 (stereo not drawn) [rolipram]
- phenotypes of treated mice [3]: antidepressant and pro-cognitive phenotypes
- improvement in depression compared with TCA medications [4]: In none of these studies, however, did rolipram produce a greater improvement in depression than the TCA medications
